From ChEMBL document CHEMBL3046503, “Insulinotropic activity of chromonyl-2,4-thiazolidinediones” (2009) come the findings set out here.

Holding throughout (type): functional
Assay [1] concerns INS1. The experiment in a line: Insulinotropic activity in Rattus norvegicus (rat) INS-1 cells assessed as increase of glucose-induced insulin release at 0.001 mg/ml after 90 min by radioimmunoassay relative to 5.6 mM of glucose.
The test system of assay [2] is INS1. Nature of the assay: Insulinotropic activity in Rattus norvegicus (rat) INS-1 cells assessed as increase of glucose-induced insulin release at 0.01 mg/ml after 90 min by radioimmunoassay relative to 5.6 mM of glucose.
Assay [3] relates to INS1. Nature of the assay: Insulinotropic activity in Rattus norvegicus (rat) INS-1 cells assessed as increase of glucose-induced insulin release at 3 mM after 90 min by radioimmunoassay relative to 5.6 mM of glucose.

With `O=C(O)CN1C(=O)S/C(=C/c2coc3ccccc3c2=O)C1=O`, the results for the Activity in assay [1] and in assay [2] were 117.2% and 121%, respectively.
With `CCOC(=O)CN1C(=O)S/C(=C/c2coc3ccc(C(C)C)cc3c2=O)C1=O`, the Activity in assay [1] is 138.5%; in assay [2] it was 180.5%.
In the case of `Cc1ccc2occ(/C=C3/SC(=O)N(CC(=O)O)C3=O)c(=O)c2c1`, the figures for the Activity in assay [1] and in assay [2] were 102.2% and 120.7%, respectively.
As for `CCOC(=O)CN1C(=O)S/C(=C/c2coc3ccc([N+](=O)[O-])cc3c2=O)C1=O`, the Activity in assay [1] is reported as 98.8%; in assay [2], 74.1%.
Consider `CC(C)c1ccc2occ(/C=C3/SC(=O)N(CC(=O)O)C3=O)c(=O)c2c1`, for which the Activity amounted to 125.6% in assay [1] and 144.3% in assay [2].
For `Cc1cc(C)c2occ(/C=C3/SC(=O)NC3=O)c(=O)c2c1`, in that order: 85.89% and 84.64%.
For `O=C(O)CN1C(=O)S/C(=C/c2coc3ccc([N+](=O)[O-])cc3c2=O)C1=O`, the Activity in assay [1] was 107.8%; in assay [2] it was 111%.
For `O=C1NC(=O)/C(=C\c2coc3ccccc3c2=O)S1`, in that order: 83.98% and 63.57%.
For `CC(C)c1ccc2occ(/C=C3/SC(=O)NC3=O)c(=O)c2c1`, in that order: 89.46% and 81.55%.
`CCOC(=O)CN1C(=O)S/C(=C/c2coc3ccc(C)cc3c2=O)C1=O`: the Activity is on record as 153.1% in assay [1] and 177.7% in assay [2].
For `O=C1NC(=O)/C(=C\c2coc3ccc([N+](=O)[O-])cc3c2=O)S1`, in that order: 81.44% and 69.2%.
Turning to `CCOC(=O)CN1C(=O)S/C(=C/c2coc3c(C)cc(C)cc3c2=O)C1=O`, the results for the Activity in assay [1] and in assay [2] were 138% and 154.4%, respectively.
As to `OC[C@H]1OC(O)[C@H](O)[C@@H](O)[C@@H]1O` (some centres not stated) [DEXTROSE], the Activity in assay [3] was determined as 73%.
As to `CCOC(=O)CN1C(=O)S/C(=C/c2coc3ccccc3c2=O)C1=O`, the Activity in assay [1] was 83.15%; in assay [2], 65.53%.
For the compound `COc1ccc(Cl)cc1C(=O)NCCc1ccc(S(=O)(=O)NC(=O)NC2CCCCC2)cc1` [GLYBURIDE], in assay [1], the Activity is recorded as 179.6%.
As for `Cc1ccc2occ(/C=C3/SC(=O)NC3=O)c(=O)c2c1`, the Activity in assay [1] was 90.53%; in assay [2], 75.61%.
For `Cc1cc(C)c2occ(/C=C3/SC(=O)N(CC(=O)O)C3=O)c(=O)c2c1`, in that order: 102.8% and 131.6%.
